Measured values from ChEMBL document CHEMBL4219163, “Discovery of 2,6-disubstituted pyrazine derivatives as inhibitors of CK2 and PIM kinases” (Bioorg Med Chem Lett, 2018).

How the values were obtained:
[1] = Half life in Wistar Han rat at 3 mg/kg, iv; type: ADME, organism-based; settings: in vivo
[2] = AUC (0 to t) in Wistar Han rat at 3 mg/kg, iv or 10 mg/kg, po; type: ADME, organism-based; settings: in vivo
[3] = Volume of distribution at steady state in Wistar Han rat at 3 mg/kg, iv or 10 mg/kg, po; type: ADME, organism-based; settings: in vivo, read-out: Vdss
[4] = Clearance in Wistar Han rat at 3 mg/kg, iv; type: ADME, organism-based; settings: in vivo
[5] = Cmax in Wistar Han rat at 3 mg/kg, iv or 10 mg/kg, po; type: ADME, organism-based; settings: in vivo
[6] = Oral bioavailability in Wistar Han rat at 10 mg/kg; type: ADME, organism-based; settings: in vivo
[7] = Lipophilicity, log D of the compound; type: physicochemical; settings: octanol/water

half-life [1] [h]	AUC(0-t) [2] [µM·h]	Vd [3] [L/kg]	clearance [4] [mL/min/kg]	Cmax [5] [nM]	bioavailability [6] [%]	logD [7]	Structure (SMILES)
1	5.5	1.8	56	2900	80		CC(C)Nc1ccc2ccn(-c3cncc(-c4ccc(C(=O)O)cc4)n3)c2c1
7.1	5.5	1	19	830	24	1.06	CC(C)Nc1ccc2cnn(-c3cncc(-c4ccc(C(=O)O)cc4)n3)c2c1
